Measured values as given in patent US7563461B2, “Zinc salt compositions for the prevention of dermal and mucosal irritation” (The Trustees of Columbia University in the City of New York, priority 2002, dated 2009).

How the values were obtained:
[1] = cited from earlier work
vaginal mucosa = test: Nonoxynol-9-induced irritation of vaginal mucosa in a rabbit model; conditions: gel-based lubricant containing 9% nonoxynol-9, rabbits
From the text: This animal model was used to evaluate the anti-irritant efficacy of various zinc salt compositions in vivo.
Two ml of the zinc salt lubricant compositions indicated in Table 3 was instilled into the vagina of each rabbit daily for five consecutive days. At the end of this period, a veterinary pathologist evaluated each animal both macroscopically and microhistopathologically and scored the degree of vaginal irritation that was present. Irritation was quantified as follows: 0=No irritation, 1-4=Minimal Irritant, 5-8=Mild Irritation, 9-11=Moderate Irritation, 12-16=Severe Irritation.

Substance	water solubility (in words) [1]	irritation of the vaginal mucosa (vaginal mucosa)
zinc picolinate	moderately water soluble	
nonoxynol-9		mild to moderate irritation
